The text below walks through data of patent US20230310374A1, “COMPOSITIONS AND METHODS FOR TREATING HEADACHE OR FACIAL PAIN” (priority 2021, published 2023).

One test concerns the target T1, Human 5-HT1B receptor (Homo sapiens, UniProt P28222).
T1 construct: host or cells: CHO-K1 (hamster), stably transfected; cAMP Hunter cell line
The test is described as follows: Hit Hunter cAMP secondary messenger assay, Gi agonist mode. Format: cell-based. The settings on record: for Curve Top (% activation) / Emax: relative to 5-HT MAX control.

Test [1] concerns female mice exposed to stress and sodium nitroprusside (SNP). The test is described as follows: Stress plus sodium nitroprusside (SNP)-induced migraine mice model, von Frey facial withdrawal score. Format: in vivo, C57BL/6j mice. The method, then:
To evaluate the prophylactic and acute/abortive treatment effects of single administration of 5-OH-DMT to female mice exposed to stress and sodium nitroprusside (SNP) as a model of stress-primed migraine pain.
C57BL/6j mice (7-8 weeks, female) were acclimated for 1 week prior to the experiment. Mice were kept in groups of 4-5 animals per cage in a housing room with temperature maintained at 21-23° C. and 40-70% relative humidity, on a 12/12 h light:dark cycle. Chow and water were available ad libitum except during testing. […] On Day 10, von Frey testing was conducted again to confirm that mechanical withdrawal scores were similar across naïve and stress-exposed mice. Stress-exposed animals were randomized to treatment groups based on body weight and facial mechanical withdrawal score. Then, each animal was administered a 1st intraperitoneal (i.p.) injection of 5-OH-DMT (dissolved in 0.9% sterile saline and administered at 3, 10 or 30 mg/kg in a volume of 10 ml/kg) or vehicle.
On Day 11, at 24 h following the 1st injection, vehicle or 0.1 mg/kg sodium nitroprusside (SNP) was given i.p. and facial mechanical withdrawal scores were assessed 3 hours later to confirm establishment of a stress+SNP-induced hypersensitive state in Day 10 vehicle-treated animals (Groups 2-6) or, in Day 10 test article-treated […] (Groups 7-9), assess the prophylactic effect of compound administration. On Day 12, at 23 hours after vehicle or SNP injection, each animal was administered a 2nd i.p. injection of vehicle or 5-OH-DMT or sumatriptan (acute treatment positive control animals received vehicle on Day 10). One hour later, facial withdrawal scores were assessed to evaluate acute effects of treatments (Groups 2-6) or durability of prophylactic effects (Groups 7-9).
Mice were allowed to acclimate to the testing cage for 60 minutes each day before the test. To assess pain-like behaviors induced by noxious mechanical stimulation applied on the vibrissal pad (orofacial area), the mouse was placed in a small cage with a metal mesh ceiling and a wood bottom (10 cm×5 cm×5 cm). The semiparametric scoring system used to evaluate the response of the animal to the mechanical stimulation was described in detail by Vos et al. (1994). Mechanical stimulation delivered by a von Frey hair with the bending force of 0.07 g was applied bilaterally to the vibrissal pad. […] The summated score of these 8 trials was counted as the animal's response score. […]

In the next test the test system is rats. The settings on record: cited from earlier work.
In test [2] the test system is mice. The settings on record: cited from earlier work.
In a further test the test system is humans. The settings on record: cited from earlier work.
In test [3] the test system is mice. The settings on record: cited from earlier work. This is another data set of the same source.

Where two headings read alike, the source gives them in different places.

T1 sequence (P28222 whole entry): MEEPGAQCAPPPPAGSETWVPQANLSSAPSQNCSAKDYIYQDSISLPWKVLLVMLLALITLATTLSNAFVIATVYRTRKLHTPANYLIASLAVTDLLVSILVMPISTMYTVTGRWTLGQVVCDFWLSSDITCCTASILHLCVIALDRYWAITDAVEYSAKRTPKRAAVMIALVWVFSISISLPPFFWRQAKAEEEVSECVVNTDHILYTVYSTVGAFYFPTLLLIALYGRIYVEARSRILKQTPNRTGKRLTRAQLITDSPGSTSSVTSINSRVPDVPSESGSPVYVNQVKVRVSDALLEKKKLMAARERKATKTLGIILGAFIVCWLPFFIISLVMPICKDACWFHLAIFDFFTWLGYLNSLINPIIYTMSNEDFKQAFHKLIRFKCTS
Description for Human 5-HT1B receptor: Methods: cAMP Secondary Messenger Pathway Assay Method.
Hit Hunter® cAMP assays were used to monitor the activation of a GPCR via Gi and Gs secondary messenger signaling in a homogenous, non-imaging assay format using DiscoverX's Enzyme Fragment Complementation (EFC) with β-galactosidase (β-Gal) as the functional reporter. The enzyme is split into two complementary portions: EA for Enzyme Acceptor and ED for Enzyme Donor. ED is fused to cAMP and in the assay competes with cAMP generated by cells for binding to a cAMP-specific antibody. Active β-Gal is formed by complementation of exogenous EA to any unbound EDcAMP.
cAMP Hunter cell lines were expanded from freezer stocks according to standard procedures. Human 5-HT1B receptor-mediated cAMP signaling was evaluated in stably transfected hamster-derived CHO-K1 cells. Cells were seeded in a total volume of 20 μL into white walled, 384-well microplates and incubated at 37° C. overnight. cAMP modulation was determined using the DiscoverX HitHunter cAMP XS+ assay.
For Gi agonist determination, cells were incubated with sample in the presence of 15 mM forskolin to induce response. Media was aspirated from cells and replaced with 10 μL HBSS/10 mM Hepes. Intermediate dilution of sample stocks was performed to generate 4× sample in assay buffer. 5 μL of 4× sample plus 5 μL of 4× forskolin was added to cells and incubated at 37° C. for 30 minutes. Final assay vehicle concentration was 1%. After compound incubation, assay signal was generated through incubation with 20 μL cAMP XS+ED/CL lysis cocktail for one hour followed by incubation with 20 μL cAMP XS+EA reagent for three hours at room temperature. Microplates were read following signal generation with a PerkinElmer Envision™ instrument for chemiluminescent signal detection.
Compound activity was analyzed using CBIS data analysis suite (ChemInnovation, CA). For Gi agonist mode assays, percentage activity is calculated using the following formula: % Activity=100%×(1−(mean RLU of test sample−mean RLU of MAX control)/(mean RLU of vehicle control−mean RLU of MAX control)).
The same human 5-HT1B receptor functional agonism assay as described above was used in a separate experiment.

With `NCCc1c[nH]c2ccc(O)cc12` [5-HT, serotonin, reference compound], the “Curve Top (% activation)” value on Human 5-HT1B receptor (Study #1) is listed as 100.22%; at Human 5-HT1B receptor (Study #2), 107.54%. Also, the “agonist activity at human 5-HT1B receptors” value on Human 5-HT1B receptor (first experiment (Study #1)) and at Human 5-HT1B receptor (second experiment (Study #2)) was “full agonist activity” throughout.

For `CNS(=O)(=O)Cc1ccc2[nH]cc(CCN(C)C)c2c1` [sumatriptan, reference compound], the “facial hypersensitivity vs vehicle (G2), acute treatment” value in test [1] (sumatriptan 1 mg/kg i.p. on Day 12, tested 1 h after injection #2 (G3)) is “significantly reduced facial hypersensitivity”.

For the compound `COc1ccc2[nH]cc(CCN(C)C)c2c1` [5-MeO-DMT, 5-methoxy-N,N-dimethyltryptamine], the acute analgesic effects result with rats is “exhibited acute analgesic effects”. Further, the “head twitch response in mice” value with mice [2] (indicative of in vivo 5-HT2A receptor activation) was “induces the head twitch response”. Besides, the “dose eliciting mouse head-twitch response” value with mice [2] (mice, i.p. or s.c.) is recorded as no less than 10 mg/kg. Further, the “time of initial effects” value with humans (insufflation of 10 mg) is 3 to 4 min. Also, in the test on humans (insufflation of 10 mg), the “time of termination of effects” value was 60 to 70 min. In addition, the “dose range with psychoactive effects” value was 0.25 to 3.1 mg with humans (intravenous) and 6 to 30 mg in the test with humans (smoked). The “dose with psychoactive effects” value in the test on humans (oral, after pretreatment with a monoamine oxidase inhibitor (e.g., harmaline)) is 10 to 25 mg; with humans (oral, encapsulated) it was 30 mg; in the test on humans (sublingual) it was roughly 10 mg.

In the case of `CN(C)CCc1c[nH]c2ccc(O)cc12` [5-OH-DMT, 5-hydroxy-N,N-dimethyltryptamine], the EC50 at Human 5-HT1B receptor was no more than 1 nM. In addition, the Emax on Human 5-HT1B receptor (Study #1, read-out: Maximal activation (%)) was determined as 104%; at Human 5-HT1B receptor (read-out: Maximal activation (%), Study #2) it was 96.7%. Besides, at Human 5-HT1B receptor (Study #2), the “Curve Top (% activation)” value came to 100.41%. The “agonist activity at human 5-HT1B receptors” value at Human 5-HT1B receptor (first experiment (Study #1)) and at Human 5-HT1B receptor (second experiment (Study #2)) was “full agonist activity” throughout. Moreover, the “facial hypersensitivity vs vehicle (G2), prophylactic treatment” value in test [1] (30 mg/kg i.p. on Day 10, 24 h before SNP, tested Day 11, 3 h after SNP (G9)) is “significantly reduced facial hypersensitivity”. In addition, the “facial hypersensitivity vs vehicle (G2), durability of prophylactic effect” value in test [1] (30 mg/kg i.p. on Day 10, tested Day 12 (G9)) was “significantly reduced facial hypersensitivity”. For the same compound, the “facial hypersensitivity vs vehicle (G2), acute treatment” value in test [1] (30 mg/kg i.p. on Day 12, tested 1 h after injection #2 (G6)) is listed as “significantly reduced facial hypersensitivity”. Further, the “head twitch response ED50” value with mice [2] (mice, subcutaneous) is 15 mg/kg. Moreover, the “acute anti-inflammatory and analgesic effects” value with mice [3] is “exhibited acute anti-inflammatory and analgesic effects”. Moreover, the “duration of short-lived aftereffects” value with humans (insufflation of 40 mg) is recorded as “up to 90 minutes”. In addition, the “time of initial effects” value with humans (insufflation of 40 mg) was 5 min.
